The numbers were not newly measured in patent US20180243247A1, “DRUG COMBINATIONS FOR CEREBROVASCULAR DISEASE” (priority 2017, published 2018), which cites them from elsewhere.

Data set [1] concerns rodent models of CNS ischemia.

The structures appear in SMILES notation. Like-named read-outs stand apart in the source and are kept apart here.

With `NCCCNCCCCNCCC(=O)NCCCCCNC(=O)[C@H](CC(N)=O)NC(=O)Cc1ccc(O)cc1O` [JSTX-3], in the data set with AMPA receptor, the “calcium influx through the AMPA receptor” value was “dramatically reduces calcium influx”.
With `C=CC[C@@H]1/C=C(\C)C[C@H](C)C[C@H](OC)[C@H]2O[C@@](O)(C(=O)C(=O)N3CCCC[C@H]3C(=O)O[C@H](/C(C)=C/[C@@H]3CC[C@@H](O)[C@H](OC)C3)[C@H](C)[C@@H](O)CC1=O)[C@H](C)C[C@@H]2OC` [Tacrolimus], the neuroprotection result in data set [1] (dose concentration of 0.1 mg/kg) is “neuroprotective”; in data set [1] (lower doses than 0.1 mg/kg, monotherapy) it was “not neuroprotective”. Also, the neuroprotective effects result in data set [1] (rodent models of CNS ischemia) is “exhibits neuroprotective effects”.
